Patent US8197865B2, “Methods and compositions for modulating hair growth or regrowth” (Access Business Group International LLC, priority 2005, dated 2012)

Legend:
[1] = test system: DHT synthesis in DU-145 cells; test: Dihydrotestosterone (DHT) synthesis by human prostate cells (DU-145), DHT ELISA; type: cell-based; details: for Average % DHT Synthesis Observed: % control vs DHT in untreated control cells, testosterone 1 nM, 6 hours, test concentrations typically 0.1, 1, 10 μg/ml
[2] = test system: KGF secretion by human dermal papilla cells; test: KGF secretion by human dermal papilla cells, ELISA; type: cell-based; details: for Average % KGF Secretion: % control vs untreated control cells, overnight, typically 0.1, 1, 10 μg/ml
Method: (§1) The ability of each of the ingredients in the compositions of the present invention to stimulate or increase secretion of growth factors, such as VEGF and KGF was measured. One of ordinary skill in the art will appreciate that there are numerous methods for measuring the ability of a substance to stimulate secretion of a growth factor. One example of such a method is set forth below and described in Lachgar S., et al., 1998. “Minoxidil upregulates the expression of vascular endothelial growth factor in human hair dermal papilla cells.” Br J. Dermatol. 138:407-11, the entire contents of which are incorporated by reference herein.
(§2) For example, to measure the ability of a compound to stimulate secretion of a growth factor, 100 mg of each test sample in powder form was measured. A 50 mg/ml total extract of the sample was then prepared by sequential addition of DMSO:ethanol:water in a ratio of 5:3:2. One of ordinary skill in the art will understand that other amounts of sample may be used. For example, to prepare a 100 mg sample, 1 mL DMSO, 0.6 ml ethanol, and 0.4 ml water are mixed together.
(§3) This solution is extensively mixed by vortexing and incubating for 10 minutes in a sonic water bath. Each sample ingredient is diluted from the stock concentration of 50 mg/ml to a test concentration (i.e., typically, 0.1, 1, and 10 μg/ml) in tissue culture media.
(§4) The effect of each test sample ingredient may be measured using human dermal papilla cells, which may be purchased from Cell Applications (San Diego, Calif.). In particular, the cells are plated at 3.5×10^4/well in a standard 24 well tissue culture plate using a proprietary medium supplied by the company. Following plating, the cells are incubated overnight. The following day, the media in the wells is aspirated and replaced with fresh media containing the diluted sample ingredient. The cells are again incubated overnight with the samples.
(§5) Growth factors in the cell culture supernatants are assayed using commercially available ELISA kits according to the manufacture's specifications. For example, an ELISA assay may be run to detected either KGF, VEGF, or both. An ELISA kit for detecting KGF may be purchased from R&D Systems (Minneapolis, Minn.). An ELISA kit for detecting VEGF may be purchased from Biosource International (Camarillo, Calif.).
(§6) Data are reported as % control compared to the level of growth factor secreted from untreated control cells.

[3] = test system: VEGF secretion by human dermal papilla cells; test: VEGF secretion by human dermal papilla cells, ELISA; type: cell-based; details: for Average % VEGF Secretion: % control vs untreated control cells, overnight, typically 0.1, 1, 10 μg/ml
Method: as §1, §2, §3, §4, §5, §6

[4] = test system: proteasome; test: Proteasome inhibition, fluorescent substrate kit; type: biochemical; details: % control vs proteasome activity without inhibitor or test sample; test concentration given as 50 mg/ml
Method: The ability of each of the ingredients in the compositions of the present invention to inhibit proteasome activity was measured. One of ordinary skill in the art will appreciate that there are numerous methods for measuring the ability of a substance to inhibit proteasome activity. One example of such a method is set forth below and described in U.S. Pat. No. 6,410,512, the entire contents of which are incorporated by reference herein.
as §2, with “inhibit proteasome activity,” for “stimulate secretion of a growth factor,”, “neat” for “powder”
This solution is extensively mixed by vortexing and incubating for 10 minutes in a sonic water bath. Each sample ingredient is diluted from the stock concentration to a test concentration of 50 mg/ml in proteasome reaction buffer media.
Inhibition of proteasome activity may be assayed using a proteasome kit that is commercially available, for example from Boston Biochem (Boston, Mass.). Test sample ingredients are first added to the proteasome provided with the kit. The fluorescent proteasome substrate is then added and cleavage of the substrate by the proteasome is monitored using a fluorescence plate reader. Data are expressed as % control compared to proteasome activity without any inhibitor or test sample added.
as §6

Row | Molecule | Average % DHT Synthesis Observed [1] | Effect on KGF secretion, in words (summary of Table 3) [2] | Average % KGF Secretion [2] | Average % VEGF Secretion [3] | Average % Proteasome Activity [4] | Effect on DHT synthesis, in words (summary of Table 2) [1] | Effect on VEGF secretion, in words (summary of Table 3) [3]
1 | C[C@@H]1O[C@@H](O[C@H]2C(=O)c3c(O)cc(O)cc3O[C@@H]2c2ccc(O)c(O)c2)[C@H](O)[C@H](O)[C@H]1O [Astilbin] | 78.0% | most potent inhibitors of KGF secretion | 85.4% | 122.9% | 47.7% |  | 
2 | O=c1cc(-c2ccc(O)c(-c3c(O)cc(O)c4c(=O)cc(-c5ccc(O)cc5)oc34)c2)oc2cc(O)cc(O)c12 [Amentoflavone] | 163.9% |  | 209.5% | 186.2% |  |  | 
3 | disodium lauraminodipropionate tocopheryl phosphate [Vital ET ™] | 72.1% |  | 103.0% | 107.9% | 68.3% | most potent inhibitors of DHT synthesis | 
4 | CC1=C(/C=C/C(C)=C/C=C/C(C)=C/C=C/C=C(C)/C=C/C=C(C)/C=C/C2=C(C)C(=O)[C@@H](O)CC2(C)C)C(C)(C)C[C@H](O)C1=O [Astaxanthin] | 103.9% |  | 327.1% | 249.4% | 114.0% |  | most potent stimulators of VEGF
5 | O=C(CCCCc1ccc2c(c1)OCO2)N1CCCCC1 [Cosmoperine ™, tetrahydropiperine] | 130.1% | most potent inhibitors of KGF secretion | 75.1% | 172.5% | 67.6% |  | 
6 | O=c1cc(-c2ccc(O)c(O)c2)oc2cc(O)cc(O)c12 [Luteolin] | 96.2% |  | 147.8% | 123.2% | 76.4% |  | 
